# Measurements taken from the SangsterLogP compilation.
row,logP,Structure (SMILES)
1,2.42,OCc1ccc2ccccc2c1
2,4.22,CCc1ccc(CC)cc1
3,4.16,CCc1cccc(CC)c1
4,4.1,CCc1ccccc1CC
5,5.37,CCCCCCCc1ccccc1
6,2.36,CCc1ccccc1O
7,5.32,CCCCCCCCCCCCc1ccc(O)cc1O
8,5.04,CC(C)(C)C1CCCCC1
9,3.07,CCCCCCc1ccc(O)cc1O
10,2.54,Cc1cccc2[nH]ccc12
11,2.34,O=Cc1ccc(Cl)cc1
12,2.51,Cc1[nH]c2ccccc2c1C
13,3.97,CCn1c2ccccc2c2ccccc21
14,4.51,C/C=C/CCCCC
15,4.56,CCC1CCCCC1
16,4.17,CC1CCCCC1
17,2.87,Oc1cccc2c1CCCC2
18,3.04,OCc1c2ccccc2cc2ccccc12

row,Structure (SMILES),logP
1,Oc1ccc(O)c2ccccc12,2.24
